# According to patent publication US8629100B2, “Method of inhibiting clostridium difficile by administration of oritavancin” (The Medicines Company, priority 2007, dated 2014):
# Entries after “also recorded” stand apart in the source; their conditions may differ.
# Legend:
# [1] = test system: genotypically distinct C. difficile (n = 33); test: Agar incorporation MIC; format: cell-based; conditions: for MIC range / MIC90: AI; for MIC90 / MIC: Clostridioides difficile
# Text: Thirty-three genotypically distinct (by PCR ribotyping) C. difficile isolates were selected from a library of strains at the Leeds General Infirmary (Leeds, UK). Representative isolates of epidemic C. difficile PCR ribotypes 001, 106 and 027 were included in the panel. Control isolates of Staphylococcus aureus ATCC 29213, Enterococcus faecalis ATCC 29212 and Bacteroides fragilis ATCC 25285 were included in all MIC determinations to ensure procedure accuracy.
# Agar incorporation MICs were determined based on the method of Freeman and Wilcox (J Antimicrob Chemother 2001; 47: 244-6). Briefly, bacteria were cultured in Schaedler's anaerobic broth (Oxoid, Basingstoke, UK) at 37° C. for 24 h in an anaerobic cabinet (Don Whitley Scientific, Shipley). […] Oritavancin was prepared in 0.002% P80. All antimicrobial solutions were sterilized by filtration through 0.22 um syringe filters. […] Wilkins Chalgren agar (Oxoid) incorporating doubling dilutions of antimicrobial agents (0.03-16 mg/L) was prepared with and without 0.002% P80 and with and without 2% lysed horse blood (E&O Labs, Bonneybridge, UK). All media and diluents were pre-reduced overnight in the anaerobic cabinet. Bacterial cultures were diluted in sterile saline and inoculated onto the surface of agar incorporation agar plates using a multipoint inoculator (˜10^4 cfu). Agar incorporation plates were incubated anaerobically for 48 h. MIC endpoints were read as the lowest concentration of antimicrobial agent where there is no apparent growth (disregarding a visible haze of growth or a single colony).
# [2] = test system: C. difficile vegetative cultures and spores; test: Spiral gradient endpoint analysis MIC; format: cell-based
# Experimental: C. difficile PCR ribotypes 001, 106 and 027 were inoculated onto Columbia blood agar and incubated anaerobically (37° C.) for 10 d. Growth was harvested into sterile saline and alcohol shocked in an equal volume of 100% ethanol for 1 h. Alcohol-shocked spore suspensions were mixed by vortexing and sonicated for 5 minutes at room temperature. C. difficile phase-bright (non-germinated) spores were separated from phase-dark (germinated) spores and cellular debris by density gradient centrifugation (4000 rpm 15 minutes) following layering onto 50% (v/v in phosphate buffered saline) Urografin 370 (Schering, Germany). The density gradient centrifugation step was performed twice. Pellets of purified spores were re-suspended in sterile saline (1 mL per 10 Columbia blood agar plates harvested). Percentage phase-bright spores, phase-dark spores and vegetative cells were recorded using phase-contrast microscopy (×100 magnification).
# A spiral plater (WASP2, Don Whitley Scientific, UK) was used to apply a logarithmic antibiotic gradient onto the surface of pre-dried (37° C. 20 minutes) Brazier's agar (pH 7). Agar with logarithmic antimicrobial gradients applied to their surface remained at room temperature for 1 h to allow the antimicrobial agent to adsorb into the agar. C. difficile vegetative cultures and spores (˜10^7 cfu/mL) were inoculated onto the agar surface (FIG. 1) with a sterile cotton swab and incubated anaerobically (37° C., 24 h). D-values were measured (in mm) and converted to MICs (Paton, J. H.1990. Int J Exp Clin Chemother. 9, 31-38).
# [3] = test system: Staphylococcus aureus NCTC 6571; test: Growth on antibiotic-exposed cellulose acetate filters (Example 3C); format: cell-based; conditions: overnight culture
# Experimental: One mL solutions (containing no C. difficile spores) were processed as in Experiment 2B and filters placed onto Braziers CCEY agar. Onto the filters were inoculated 2×20 μL of:
# c) Staphylococcus aureus NCTC 6571 (Oxford strain, overnight culture).
# Growth/no growth was recorded following anaerobic incubation.
# [4] = test system: C. difficile (CD) ATCC 43255; test: Hamster model of CDI, oral administration; format: in vivo, Syrian golden hamsters; conditions: for Toxins A and B in caecal contents: ORI 100 mg/kg (PEG400) on Day 20 PI, VA 50 mg/kg once daily
# [5] = test system: genotypically distinct C. difficile (n = 33); test: Broth macrodilution MIC; format: cell-based; conditions: for MIC range / MIC90 / MIC: BM, broth macrodilution; for MIC90 / MIC: Clostridioides difficile; for MIC: read-out: GEO MIC
# [6] = test system: C. difficile PCR ribotype 027 spores; test: Phase-contrast microscopy of spore germination/outgrowth; format: cell-based; conditions: 10 mg/L for 2 h, washed 3x in PBS
# Experimental: C. difficile spores were also exposed to 10 mg/L antimicrobial for 2 h, washed 3× in sterile PBS, re-suspended and inoculated into Brazier's broth medium (pH 7). Samples were removed at 2, 4, 6, 24, 32 and 48 h. Slides were viewed under phase-contrast microscopy and percentages of phase-bright spores, phase-dark spores and vegetative cells were recorded (FIG. 4).
# Statistical analyses were performed by transforming percentage data using an Arcsin Transformation and analysed using a Wilcoxon signed rank test. P<0.05 was considered statistically significant. Supra-MIC concentrations of all antimicrobials prevented outgrowth but not germination of C. difficile spores.
# [7] = read-out: GEO MIC, AI, P80 no LHB
# [8] = read-out: GEO MIC, AI, P80 with LHB
# [9] = read-out: GEO MIC, AI, no P80 no LHB
# [10] = read-out: GEO MIC, AI, no P80 with LHB
SMILES,MIC range ([1]; P80 no LHB) [µg/mL],MIC range ([1]; P80 with LHB) [µg/mL],MIC range ([1]; no P80 no LHB) [µg/mL],MIC range ([1]; no P80 with LHB) [µg/mL],MIC90 ([1]; P80 no LHB) [µg/mL],MIC90 ([1]; P80 with LHB) [µg/mL],MIC90 ([1]; no P80 no LHB) [µg/mL],MIC90 ([1]; no P80 with LHB) [µg/mL],"MIC [1, 7] [µg/mL]","MIC [1, 8] [µg/mL]","MIC [1, 9] [µg/mL]","MIC [1, 10] [µg/mL]",Growth of S. aureus NCTC 6571 on filters through which antibiotic had been filtered [3],Toxins A and B in caecal contents [4],MIC range [5] [µg/mL],MIC90 [5] [µg/mL],MIC [5] [µg/mL],Outgrowth of C. difficile spores prior-exposed to antimicrobial [6],other results
"CN[C@H](CC(C)C)C(=O)N[C@H]1C(=O)N[C@@H](CC(N)=O)C(=O)N[C@H]2C(=O)N[C@H]3C(=O)N[C@H](C(=O)N[C@H](C(=O)O)c4cc(O)cc(O)c4-c4cc3ccc4O)[C@H](O[C@H]3C[C@](C)(N)[C@@H](O)[C@H](C)O3)c3ccc(c(Cl)c3)Oc3cc2cc(c3O[C@@H]2O[C@H](CO)[C@@H](O)[C@H](O)[C@H]2O[C@H]2C[C@](C)(NCc3ccc(-c4ccc(Cl)cc4)cc3)[C@@H](O)[C@H](C)O2)Oc2ccc(cc2Cl)[C@H]1O [oritavancin, N-(4-(4-chlorophenyl)benzyl)A82846B]",2 to 4,1 to 4,2 to 4,0.5 to 4,4,4,4,2,2.7,1.58,2.33,1.72,grew,undetectable,0.06 to 1,1,0.31,much lower than control; also recorded: significantly inhibited,"MICs against C. difficile spores lower than against vegetative cells ([2]; Brazier's agar pH 7, 24 h): 5-13 fold; Survival up to 20 days PI ([4]; 100 mg/kg once daily oral from Day 2 for 5 days, formulated in PEG400): All the animals treated with ORI survived; CD vegetative and spore cells in caecal content ([4]; 20 days PI, formulated in PEG400, LOD 1.47 (TC) and 1.77 (spores) Log 10 CFU/g): undetectable; Broth macrodilution MICs lower than agar incorporation MICs [5]: 2- to 4 fold; Broth macrodilution geometric mean MICs lower than those for metronidazole [5]: ~2 fold; Broth macrodilution geometric mean MICs lower than those for vancomycin [5]: ~5 fold; Tested isolates more susceptible (≧2 doubling dilutions) than to vancomycin [5]: 76%"
CN[C@H](CC(C)C)C(=O)N[C@H]1C(=O)N[C@@H](CC(N)=O)C(=O)N[C@H]2C(=O)N[C@H]3C(=O)N[C@H](C(=O)N[C@H](C(=O)O)c4cc(O)cc(O)c4-c4cc3ccc4O)[C@H](O)c3ccc(c(Cl)c3)Oc3cc2cc(c3O[C@@H]2O[C@H](CO)[C@@H](O)[C@H](O)[C@H]2O[C@H]2C[C@](C)(N)[C@H](O)[C@H](C)O2)Oc2ccc(cc2Cl)[C@H]1O [vancomycin],1 to 4,0.5 to 2,0.5 to 2,1 to 4,2,1,2,2,1.3,1,1.51,1.35,grew,High level,0.5 to 2,2,1.58,not observed,MICs for C. difficile vegetative cells versus spores ([2]; data not shown): did not differ substantially
